Measurements reported in PubChem BioAssay AID624285 (Broad Institute, 2012).
Active and inactive are the calls of the source.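 How the source made its calls: active means signal-decreasing dose-response curve whose fitted half-maximal concentration is at or below twice the highest valid tested dose; inconclusive means flat fit at 30 to 70% signal loss, or poor fit; inactive means the rest.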

Legend:
[1] = system: NIH3T3/HeLa viability, CellTiter-Glo ATP luminescence, 24 h; experiment: cytotoxicity in mammalian cells, dose response, cytotoxicity control for PDI inhibitor project, cell-based, 24 h, luminescence, cherry-picked samples (AID 624285)
[2] = as above; settings: NIH3T3/HeLa viability, CellTiter-Glo ATP luminescence, 24 h; at 35 µM (top of the series)

| SMILES | AC50 [1] | activity change, negative = cytotoxicity [2] |
| --- | --- | --- |
| CC(=O)OC1CCC2C3CCC4=C(CC(F)C(=O)C4)C3CCC12C (stereo not given) | > 70 µM (inactive) |  |
| O=S(=O)(Nc1ccc(C(O)(C(F)(F)F)C(F)(F)F)cc1)c1ccc(Cl)c2nonc12 | 9.47 µM |  |
| Cc1cccn2c(CN(C)C3CCCc4ccccc43)c(C(=O)N3CCOCC3)nc12 (stereo not given) | > 70 µM (inactive) |  |
| CC[C@]12c3[nH]c4cc(-c5ccco5)ccc4c3CCN1C(=O)[C@@H](CC(=O)NCc1ccco1)C[C@@H]2C(=O)N1CCN(C(=O)c2ccco2)CC1 | > 70 µM (inactive) |  |
| COc1ccc(Oc2ccc(/C=C/C(=O)c3ccc(O)cc3)cc2[N+](=O)[O-])cc1 | 12.4 µM |  |
| O=C(Nc1ccccc1N1CCCC1)c1cc(Cl)ccc1Cl | > 70 µM (inactive) |  |
| C[C@]12CC[C@H]3C(=CCc4cc(O)ccc43)[C@@H]1CCC2=O | > 70 µM (inactive) |  |
| CCOC(=O)C1(CCOc2ccccc2)CCN(Cc2cccc(O)c2)CC1 | > 70 µM (inactive) |  |
| CCOC(=O)c1c(CN2CCN(C)CC2)n(-c2ccccc2)c2cc(Br)c(O)cc12 | 23.9 µM |  |
| C[C@H]1CN([C@@H](C)CO)C(=O)c2cc(NC(=O)Cc3cn(C)c4ccccc34)ccc2O[C@@H]1CN(C)S(=O)(=O)c1ccc(F)cc1 | > 70 µM (inactive) |  |
| O=C(Nc1ccc(Br)cc1F)c1cccnc1 | > 70 µM (inactive) |  |
| C[C@@H]1CN([C@@H](C)CO)C(=O)c2cc(NC(=O)Cc3cn(C)c4ccccc34)ccc2O[C@@H]1CN(C)S(=O)(=O)c1ccc(F)cc1 | > 70 µM (inactive) |  |
| Cc1ccc(N(Cc2ccccc2)C(=O)c2cccc(S(=O)(=O)N3CC(C)OC(C)C3)c2)cc1 (stereo not given) | > 70 µM (inactive) |  |
| CN1CCN(CCOC2c3ccccc3CSc3ccc(Cl)cc32)CC1 (stereo not given) | 30.5 µM |  |
| CCCN(CCC)S(=O)(=O)c1ccc(C(=O)Nc2nnc(COC)o2)cc1 | > 70 µM (inactive) |  |
| Cc1noc(C)c1-c1ccc(C(=O)NCc2ccc(Cl)cc2)c2occc12 | > 70 µM (inactive) |  |
| CN(C)CCCN(C(=O)c1ccc(S(=O)(=O)N2CCc3ccccc32)cc1)c1nc2c(Cl)cccc2s1 | 16.5 µM |  |
| CN(c1ccccc1)S(=O)(=O)c1cc(C(=O)N2CCN(c3ncccn3)CC2)ccc1Cl | > 70 µM (inactive) |  |
| COc1ccc(C(=O)c2c(C)c3cc(C)ccc3n2CC(O)CN2CCOCC2)cc1 (stereo not given) | > 70 µM (inactive) |  |
| O=C(COC(=O)c1ccccc1NC(=O)c1ccco1)NCCC1=CCCCC1 | > 70 µM (inactive) |  |
| COc1ccc(C2c3ccc(O)cc3Oc3ncn(CCN4CCOCC4)c(=N)c32)cc1OC (stereo not given) | > 70 µM (inactive) |  |
| CCOC(=O)Oc1c(OC)cc(C(=O)O[C@@H]2C[C@@H]3CN4CCc5c([nH]c6cc(OC)ccc56)[C@H]4C[C@@H]3[C@H](C(=O)OC)[C@H]2OC)cc1OC | 27.3 µM |  |

| SMILES | AC50 [1] | activity change, negative = cytotoxicity [2] |
| --- | --- | --- |
| CCOC(=O)C1(CCOc2ccccc2)CCN(Cc2ccc(O)c(Cl)c2)CC1 | > 70 µM (inactive) |  |
| CCOC(=O)c1c(CNCCN(CC)CC)n(C)c2cc(Br)c(OC)cc12 | > 70 µM (inactive) |  |
| CCOC(=O)C1(CCOc2ccccc2)CCN(Cc2ccc(O)cc2)CC1 | > 70 µM (inactive) |  |
| O=C(NC(Cc1c[nH]c2ccccc12)C(=O)N/N=C/c1cccnc1)c1cccs1 (stereo not given) | > 70 µM (inactive) |  |
| CC(=O)Oc1ccc(C2OC(=O)c3ccccc3N2C(C)=O)cc1 (stereo not given) | > 70 µM (inactive) |  |
| COc1ccc(-c2nnc3ccc(SCC(=O)Nc4nc5ccccc5s4)nn23)cc1OC | > 70 µM (inactive) |  |
| COCCN(CC(=O)Nc1ccccc1C(F)(F)F)C(=O)/C=C/c1cc(Cl)c2c(c1)OCCO2 | > 70 µM (inactive) |  |
| Cc1[nH][nH]c(=O)c1C(c1c(C)[nH][nH]c1=O)c1cn(Cc2ccccc2Cl)c2ccccc12 | > 70 µM (inactive) |  |
| Cc1nnc(SCc2cc(=O)oc3cc(O)ccc23)n1Cc1ccccc1 | > 70 µM (inactive) |  |
| O=C(/C=C/c1ccc(N2CCCCC2)c([N+](=O)[O-])c1)c1ccc(O)cc1 | 12 µM |  |
| COc1ccc(/C=C2\CN(Cc3ccccc3)C/C(=C\c3ccc(OC)c(O)c3)C2=O)cc1O | 6.12 µM |  |
| COc1ccc(OCCN2CCC(C(=O)NC(c3ccsc3)c3ccccc3C)CC2)cc1 (stereo not given) | > 70 µM (inactive) |  |
| O=C(CCS(=O)(=O)c1ccccc1)N(CCCN1CCOCC1)c1nc2ccccc2s1 | 14.2 µM |  |
| CCOC(=O)c1c(CN2CCOCC2)n(-c2ccccc2)c2cc(Br)c(O)cc12 | > 70 µM (inactive) |  |
| O=C(CCC1CCCCC1)NCCN1C2=NC[C@H](Cc3ccc(O)cc3)N2C[C@H]1Cc1ccc(O)cc1 | > 70 µM (inactive) |  |
| CCCCC(=O)OC1CCC2C3CCc4cc(O)ccc4C3CCC12C (stereo not given) | 27.3 µM |  |
| CS(=O)(=O)c1ccc(C(=O)OCC(=O)N2CCN(CCC3CCCCC3)CC2)cc1[N+](=O)[O-] | 3.32 µM |  |
| CCc1cc(OCCCCNCc2ccccc2)ccc1Cl | 21.5 µM |  |
| Cc1c(O)ccc2c(CN3CCN(C/C=C/c4ccccc4)CC3)cc(=O)oc12 | > 70 µM (inactive) |  |
| CCOC(=O)C1(CCOc2ccccc2)CCN(Cc2ccccc2O)CC1 | > 70 µM (inactive) |  |
| C[C@H]1CN([C@@H](C)CO)C(=O)Cc2cc(NC(=O)Nc3ccccc3)ccc2O[C@@H]1CN(C)Cc1ccccc1 | 37.9 µM |  |
| COc1ccc(C[C@@H]2CN3C(=NC[C@@H]3Cc3ccc(O)cc3)N2C[C@H](C)NC(=O)CCC2CCCCC2)cc1 | 18.8 µM |  |

| SMILES | AC50 [1] | activity change, negative = cytotoxicity [2] |
| --- | --- | --- |
| Cc1ccc(C)c(N2CCN(S(=O)(=O)c3ccc4c(c3)OCCO4)CC2)c1 | > 70 µM (inactive) |  |
| CCSc1nnc([C@H](Cc2c[nH]c3ccccc23)NC(=O)OC(C)(C)C)o1 | > 70 µM (inactive) |  |
| CC(=O)c1cc(-c2ccccc2)n(CC(=O)Nc2cccc(C)c2)c1C | > 70 µM (inactive) |  |
| COc1c(Br)cc(C(N)=O)cc1OCc1ccccc1 | > 70 µM (inactive) |  |
| CCOC(=O)c1c(CN(C)C)n(-c2ccccc2)c2cc(Br)c(O)cc12 | > 70 µM (inactive) |  |
| Nc1ccc(C(=O)NN2C(=O)[C@H](Cl)C2c2ccc(Cl)cc2)cc1 (stereo not given in full) | 6.04 µM |  |
| COC(=O)c1ccc(NC(=S)NCCc2cccc(C)c2)cc1 | > 70 µM (inactive) |  |
| Cc1cc(O)cc2c1C1CCC3(C)C(=O)CCC3C1C=C2 (stereo not given) | > 70 µM (inactive) |  |
| COc1ccc(/C=C/C(=O)c2cc(F)ccc2OC(=O)c2ccccc2OC)cc1OC | 23.5 µM |  |
| O=c1cc(CN2CCN(S(=O)(=O)/C=C/c3ccccc3)CC2)c2ccc(O)cc2o1 | > 70 µM (inactive) |  |
| C[C@@H]1CN([C@H](C)CO)C(=O)c2cccc(NS(C)(=O)=O)c2O[C@@H]1CN(C)Cc1ccc(Oc2ccccc2)cc1 | > 70 µM (inactive) |  |
| O=C(c1ccc(S(=O)(=O)N2CCCCC2)cc1)N1CCN(Cc2ccc3c(c2)OCO3)CC1 | > 70 µM (inactive) |  |
| CC1(c2ccc3ccccc3c2)NC(=O)N(CC(=O)Nc2cccc(S(=O)(=O)N3CCOCC3)c2)C1=O (stereo not given) | > 70 µM (inactive) |  |
| CC(=O)Oc1ccccc1C(=O)C=Cc1cccc([N+](=O)[O-])c1 | 5.89 µM |  |
| COc1ccc(C[C@@H]2OC3(C=CC(=O)C=C3)O[C@H]2Cc2ccc(OC)cc2)cc1 | 1.69 µM |  |
| O=C(CCc1nc(-c2ccccc2F)no1)Nc1ccc(Oc2ccccc2)cc1 | > 70 µM (inactive) |  |
| Oc1cccc(-c2nc3c4c(ncn3n2)-c2ccccc2CC42CCCC2)c1 | 14.3 µM |  |
| COc1ccc(/C=C2\Sc3ccc(C(=O)NCCCN4CCCC4)cc3N(C)C2=O)cc1OC | 35.2 µM |  |
| NC(Cc1ccc(C(F)(F)F)cc1)c1csc(Nc2ccc(C(=O)NCCCO)cn2)n1 (stereo not given) | 35.1 µM |  |
| CC[C@]12c3[nH]c4cc(-c5ccco5)ccc4c3CCN1C(=O)[C@@H](CC(=O)NCC13CC4CC(CC(C4)C1)C3)C[C@@H]2C(=O)N1CCN(C(=O)c2ccco2)CC1 | > 70 µM (inactive) |  |
| C[C@@H]1CN([C@@H](C)CO)C(=O)Cc2cc(NC(=O)Nc3ccccc3)ccc2O[C@@H]1CN(C)Cc1ccccc1 | > 60 µM (inactive) |  |
| C=CC[C@H](CC(=O)N(CCO)Cc1ccccc1)C(=O)N[C@H](COC(=O)[C@@H](CC=C)Cc1ccc(F)cc1)Cc1c[nH]c2ccccc12 | 30.8 µM |  |

| SMILES | AC50 [1] | activity change, negative = cytotoxicity [2] |
| --- | --- | --- |
| CCOc1cc(/C=C/C(=O)c2ccc(O)cc2)ccc1OCC(=O)N(C)C | 39.4 µM |  |
| CCN1CCN(Cc2ccc(NC(=O)c3cc(NC(=O)c4cc(-c5ccc(OC)cc5)n[nH]4)cc(OC)c3)cc2C(F)(F)F)CC1 | 6.45 µM |  |
| CCOC(=O)c1c(CN(C)C)n(-c2ccc(C)cc2)c2cc(Br)c(O)cc12 | > 70 µM (inactive) |  |
| Cc1sc(NC(=O)CCl)c(C(=O)c2ccccc2)c1C | 15.4 µM |  |
| CCOC(=O)c1c(CN2CCN(C)CC2)n(C)c2cc(Br)c(OC)cc12 | 22.2 µM |  |
| Cc1ccc(NC(=O)CSC(C)C(=O)OCc2cc(=O)oc3cc(O)ccc23)cc1 (stereo not given) | > 70 µM (inactive) |  |
| Cc1noc(C)c1S(=O)(=O)Nc1ccc2c(c1)CC(=O)N([C@@H](C)CO)C[C@@H](C)[C@@H](CN(C)S(=O)(=O)c1ccc(F)cc1)O2 | > 70 µM (inactive) |  |
| Cn1cnnc1Sc1ccc(/C=C/C(=O)c2ccc(O)cc2)cc1[N+](=O)[O-] | 12.3 µM |  |
| CCOC(=O)c1c(CN2CCOCC2)n(-c2ccccc2)c2ccc(O)cc12 | > 70 µM (inactive) |  |
| C[C@@H]1CN([C@H](C)CO)C(=O)c2cccc(NS(C)(=O)=O)c2O[C@H]1CN(C)Cc1ccc(Oc2ccccc2)cc1 | > 70 µM (inactive) |  |
| Cc1c(-n2cc(C(=O)c3cc(Br)ccc3O)cc(C#N)c2=O)c(=O)n(-c2ccccc2)n1C |  | -12.8% (inactive) |
| CCOc1ncccc1C(=O)OCC(=O)Nc1ccc(C(C)C)cc1 |  | -7.86% (inactive) |
| C[C@H](CO)N1C[C@H](C)[C@@H](CN(C)S(=O)(=O)c2ccc(F)cc2)Oc2ccc(NC(=O)Cc3cn(C)c4ccccc34)cc2C1=O |  | -0.991% (inactive) |
| CC(=O)c1ccc(NC(=O)c2cc(Cl)nc3ccccc23)cc1 |  | -8.36% (inactive) |
| COc1cccc(-n2ccnc2SCC(=O)Nc2cc(OC)ccc2OC)c1 |  | -15.9% (inactive) |
| CC(O)(c1cccnc1)c1nc(-c2cc(F)cc(F)c2)cs1 (stereo not given) |  | -6.67% (inactive) |
| CNC[C@@H]1Oc2c(NS(C)(=O)=O)cccc2C(=O)N([C@@H](C)CO)C[C@H]1C |  | 1.39% (inactive) |
| CCOC(=O)C1(C)CCCN(C(=O)c2cccc(Cl)c2)C1 (stereo not given) |  | -5.27% (inactive) |
| CN(C)S(=O)(=O)c1ccc(Cl)c(NC(=O)CSc2nnnn2-c2ccc(O)cc2)c1 |  | -11.7% (inactive) |
